System: 435261-313-R-J1-PDC tumor spheroid viability
Assay: Anticancer human tumor 435261-313-R-J1-PDC patient-derived colon adenocarcinoma cell line growth inhibition [PI3K]
Details: spheroids with HUVEC and MSC; for IC50: curve of first compound; for viability, T/C: stronger effect = lower value
In short: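 Tumor cells grown as multi-cell spheroids with HUVEC endothelial cells and MSC fibroblast-like stroma were treated with targeted agents combined with inavolisib, alpelisib, duvelisib or copanlisib. Doses fell in half-log steps from near clinical Cmax, else from 10 microM. Viability was measured.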

[1] = second compound 0.0316 µM, first compound 0.0316 µM
[2] = second compound 0.0316 µM, first compound 0.1 µM
[3] = second compound 0.1 µM, first compound 0.0316 µM
[4] = second compound 0.1 µM, first compound 0.1 µM
[5] = second compound 0.316 µM, first compound 0.0316 µM
[6] = second compound 0.316 µM, first compound 0.1 µM
[7] = second compound 1 µM, first compound 0.0316 µM
[8] = second compound 1 µM, first compound 0.1 µM
[9] = second compound 0.0316 µM, first compound 0.316 µM
[10] = second compound 0.0316 µM, first compound 1 µM
[11] = second compound 0.0316 µM, first compound 3.16 µM
[12] = second compound 0.0316 µM, first compound 10 µM
[13] = second compound 0.1 µM, first compound 0.316 µM
[14] = second compound 0.1 µM, first compound 1 µM
[15] = second compound 0.1 µM, first compound 3.16 µM
[16] = second compound 0.1 µM, first compound 10 µM
[17] = second compound 0.316 µM, first compound 0.316 µM
[18] = second compound 0.316 µM, first compound 1 µM
[19] = second compound 0.316 µM, first compound 3.16 µM
[20] = second compound 0.316 µM, first compound 10 µM
[21] = second compound 1 µM, first compound 0.316 µM
[22] = second compound 1 µM, first compound 1 µM
[23] = second compound 1 µM, first compound 3.16 µM
[24] = second compound 1 µM, first compound 10 µM
[25] = second compound 3.16 µM, first compound 0.0316 µM
[26] = second compound 3.16 µM, first compound 0.1 µM
[27] = second compound 3.16 µM, first compound 0.316 µM
[28] = second compound 3.16 µM, first compound 1 µM
[29] = second compound 3.16 µM, first compound 3.16 µM
[30] = second compound 3.16 µM, first compound 10 µM
[31] = second compound 10 µM, first compound 0.0316 µM
[32] = second compound 10 µM, first compound 0.1 µM
[33] = second compound 10 µM, first compound 0.316 µM
[34] = second compound 10 µM, first compound 1 µM
[35] = second compound 10 µM, first compound 3.16 µM
[36] = second compound 10 µM, first compound 10 µM
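Also: spheroids exposed to compounds for 7 days.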

Question: `Cn1ncnc1[C@H]1c2n[nH]c(=O)c3cc(F)cc(c23)N[C@@H]1c1ccc(F)cc1` + COc1c(OCCCN2CCOCC2)ccc2c3n(c(=NC(=O)c4cnc(N)nc4)nc12)CCN3 was tested. Which IC50 (second compound 0.00316 µM) did it give?
Answer: 47.7 nM

Question: And the IC50 (second compound 0.01 µM)?
Answer: 0.895 nM

Question: And the IC50 (second compound 0.0316 µM)?
Answer: < 0.316 nM

Question: And the IC50 (second compound 0.1 µM)?
Answer: < 0.316 nM

Question: And the IC50 (second compound 0.316 µM)?
Answer: < 0.316 nM

Question: What about the IC50 (second compound 1 µM) of the same compound?
Answer: < 0.316 nM

Question: What about the viability, T/C (second compound 0.00316 µM, first compound 0.000316 µM) of the same compound?
Answer: 87%

Question: And the viability, T/C (second compound 0.00316 µM, first compound 0.001 µM)?
Answer: 41.6%

Question: What about the viability, T/C (second compound 0.00316 µM, first compound 0.00316 µM) of the same compound?
Answer: 76%

Question: And the viability, T/C (second compound 0.00316 µM, first compound 0.01 µM)?
Answer: 66.4%

Question: And the viability, T/C (second compound 0.00316 µM, first compound 0.0316 µM)?
Answer: 55%

Question: What about the viability, T/C (second compound 0.00316 µM, first compound 0.1 µM) of the same compound?
Answer: 39%

Question: What about the viability, T/C (second compound 0.01 µM, first compound 0.000316 µM) of the same compound?
Answer: 62.5%

Question: And the viability, T/C (second compound 0.01 µM, first compound 0.001 µM)?
Answer: 51%

Question: What about the viability, T/C (second compound 0.01 µM, first compound 0.00316 µM) of the same compound?
Answer: 36.7%

Question: What about the viability, T/C (second compound 0.01 µM, first compound 0.01 µM) of the same compound?
Answer: 52.7%

Question: What about the viability, T/C (second compound 0.01 µM, first compound 0.0316 µM) of the same compound?
Answer: 58.7%

Question: What about the viability, T/C (second compound 0.01 µM, first compound 0.1 µM) of the same compound?
Answer: 35%

Question: And the viability, T/C (second compound 0.0316 µM, first compound 0.000316 µM)?
Answer: 24.6%

Question: What about the viability, T/C (second compound 0.0316 µM, first compound 0.001 µM) of the same compound?
Answer: 23%

Question: What about the viability, T/C (second compound 0.0316 µM, first compound 0.00316 µM) of the same compound?
Answer: 27.1%

Question: What about the viability, T/C (second compound 0.0316 µM, first compound 0.01 µM) of the same compound?
Answer: 21.2%

Question: What about the viability, T/C [1] of the same compound?
Answer: 21.9%

Question: What about the viability, T/C [2] of the same compound?
Answer: 22.5%

Question: What about the viability, T/C (second compound 0.1 µM, first compound 0.000316 µM) of the same compound?
Answer: 17.3%

Question: What about the viability, T/C (second compound 0.1 µM, first compound 0.001 µM) of the same compound?
Answer: 16.6%

Question: And the viability, T/C (second compound 0.1 µM, first compound 0.00316 µM)?
Answer: 20.1%

Question: What about the viability, T/C (second compound 0.1 µM, first compound 0.01 µM) of the same compound?
Answer: 15.8%

Question: What about the viability, T/C [3] of the same compound?
Answer: 16.8%

Question: What about the viability, T/C [4] of the same compound?
Answer: 14.4%

Question: What about the viability, T/C (second compound 0.316 µM, first compound 0.000316 µM) of the same compound?
Answer: 8.3%

Question: What about the viability, T/C (second compound 0.316 µM, first compound 0.001 µM) of the same compound?
Answer: 7.7%

Question: And the viability, T/C (second compound 0.316 µM, first compound 0.00316 µM)?
Answer: 6.69%

Question: What about the viability, T/C (second compound 0.316 µM, first compound 0.01 µM) of the same compound?
Answer: 7.31%

Question: What about the viability, T/C [5] of the same compound?
Answer: 8.06%

Question: And the viability, T/C [6]?
Answer: 7.38%

Question: What about the viability, T/C (second compound 1 µM, first compound 0.000316 µM) of the same compound?
Answer: 3.97%

Question: What about the viability, T/C (second compound 1 µM, first compound 0.001 µM) of the same compound?
Answer: 3.84%

Question: And the viability, T/C (second compound 1 µM, first compound 0.00316 µM)?
Answer: 3.78%

Question: And the viability, T/C (second compound 1 µM, first compound 0.01 µM)?
Answer: 3.5%

Question: And the viability, T/C [7]?
Answer: 4.54%

Question: And the viability, T/C [8]?
Answer: 2.9%

Question: Which results are given for `CCCS(=O)(=O)Nc1ccc(F)c(C(=O)c2c[nH]c3ncc(-c4ccc(Cl)cc4)cc23)c1F` + Cc1nc(NC(=O)N2CCCC2C(N)=O)sc1-c1ccnc(C(C)(C)C(F)(F)F)c1?
Answer: IC50 (second compound 0.0316 µM): 5150 nM; IC50 (second compound 0.1 µM): 4870 nM; IC50 (second compound 0.316 µM): 4370 nM; IC50 (second compound 1 µM): 31.6 nM; IC50 (second compound 3.16 µM): < 31.6 nM; IC50 (second compound 10 µM): < 31.6 nM; viability, T/C [1]: 68.7%; viability, T/C [2]: 117%; viability, T/C [9]: 121%; viability, T/C [10]: 107%; viability, T/C [11]: 83%; viability, T/C [12]: 5.07%; viability, T/C [3]: 78.3%; viability, T/C [4]: 95.7%; viability, T/C [13]: 104%; viability, T/C [14]: 83.9%; viability, T/C [15]: 77%; viability, T/C [16]: 6.18%; viability, T/C [5]: 57.6%; viability, T/C [6]: 78%; viability, T/C [17]: 70.4%; viability, T/C [18]: 64.5%; viability, T/C [19]: 67.8%; viability, T/C [20]: 4.86%; viability, T/C [7]: 25.2%; viability, T/C [8]: 37.8%; viability, T/C [21]: 73.2%; viability, T/C [22]: 59.3%; viability, T/C [23]: 38.3%; viability, T/C [24]: 4.97%; viability, T/C [25]: 17.6%; viability, T/C [26]: 21.1%; viability, T/C [27]: 32.8%; viability, T/C [28]: 35.9%; viability, T/C [29]: 24.6%; viability, T/C [30]: 4.64%; viability, T/C [31]: 11.3%; viability, T/C [32]: 12.2%; viability, T/C [33]: 14.2%; viability, T/C [34]: 15.7%; viability, T/C [35]: 14.9%; viability, T/C [36]: 1.88%

Question: `CC1(C)CCC(CN2CCN(c3ccc(C(=O)NS(=O)(=O)c4ccc(NCC5CCOCC5)c([N+](=O)[O-])c4)c(Oc4cnc5[nH]ccc5c4)c3)CC2)=C(c2ccc(Cl)cc2)C1` + Cc1nc(NC(=O)N2CCCC2C(N)=O)sc1-c1ccnc(C(C)(C)C(F)(F)F)c1 was tested. Which IC50 (second compound 0.0316 µM) did it give?
Answer: 5030 nM

Question: What about the IC50 (second compound 0.1 µM) of the same compound?
Answer: 4930 nM

Question: And the IC50 (second compound 0.316 µM)?
Answer: 3530 nM

Question: What about the IC50 (second compound 1 µM) of the same compound?
Answer: < 31.6 nM

Question: And the IC50 (second compound 3.16 µM)?
Answer: < 31.6 nM

Question: What about the IC50 (second compound 10 µM) of the same compound?
Answer: < 31.6 nM

Question: What about the viability, T/C [1] of the same compound?
Answer: 50.2%

Question: What about the viability, T/C [2] of the same compound?
Answer: 81.4%

Question: And the viability, T/C [9]?
Answer: 78.5%

Question: And the viability, T/C [10]?
Answer: 83%

Question: What about the viability, T/C [11] of the same compound?
Answer: 95.5%

Question: And the viability, T/C [12]?
Answer: 8.94%

Question: And the viability, T/C [3]?
Answer: 51.2%

Question: What about the viability, T/C [4] of the same compound?
Answer: 74.1%

Question: What about the viability, T/C [13] of the same compound?
Answer: 93.8%

Question: And the viability, T/C [14]?
Answer: 69.1%

Question: And the viability, T/C [15]?
Answer: 90.8%

Question: What about the viability, T/C [16] of the same compound?
Answer: 8.73%

Question: What about the viability, T/C [5] of the same compound?
Answer: 50.5%

Question: And the viability, T/C [6]?
Answer: 57.7%

Question: And the viability, T/C [17]?
Answer: 44%

Question: And the viability, T/C [18]?
Answer: 61.1%

Question: What about the viability, T/C [19] of the same compound?
Answer: 58.6%

Question: And the viability, T/C [20]?
Answer: 9.2%

Question: What about the viability, T/C [7] of the same compound?
Answer: 26.7%

Question: What about the viability, T/C [8] of the same compound?
Answer: 24.3%

Question: What about the viability, T/C [21] of the same compound?
Answer: 27.9%

Question: And the viability, T/C [22]?
Answer: 25.4%

Question: What about the viability, T/C [23] of the same compound?
Answer: 22.6%

Question: What about the viability, T/C [24] of the same compound?
Answer: 4.29%

Question: What about the viability, T/C [25] of the same compound?
Answer: 16.6%

Question: And the viability, T/C [26]?
Answer: 16.1%

Question: What about the viability, T/C [27] of the same compound?
Answer: 13.4%

Question: And the viability, T/C [28]?
Answer: 18.5%

Question: What about the viability, T/C [29] of the same compound?
Answer: 18.1%

Question: What about the viability, T/C [30] of the same compound?
Answer: 4.62%

Question: And the viability, T/C [31]?
Answer: 9.42%

Question: And the viability, T/C [32]?
Answer: 8.27%

Question: And the viability, T/C [33]?
Answer: 7.16%

Question: What about the viability, T/C [34] of the same compound?
Answer: 8.26%

Question: What about the viability, T/C [35] of the same compound?
Answer: 8.41%

Question: What about the viability, T/C [36] of the same compound?
Answer: 2.21%
